Source: patent US11247971B2, “Small molecule inhibitors of lactate dehydrogenase and methods of use thereof” (THE UNITED STATES OF AMERICA, AS REPRESENTED BY THE …, priority 2014, dated 2022)

How the values were obtained:
MiaPaCa2 cells = assay: cell-based HT Lactate assay, colorimetric/fluorometric detection (inhibition of lactate production); conditions: class symbols
Method: Cell-based HT Lactate assay is a miniaturized Biovision Lactate Colorimetric/Fluorometric Assay Kit (Cat #K607-100). The assay is roughly a 3.5 hour assay run in a 1536 plate format. Cell number optimization should be run for each cell line to achieve an optimal number in which lactate production equals roughly 90% of the standard curve range. Cell number per well optimization has been performed with the following cell lines: MiaPaCa2—500 cells/well, SNU398—500 cells/well, and P493—500 cells/well.
The lactate activity in Table 8 is represented by 0 to 3 pluses as follows: […]; ++1-10 μM; +10-57 μM; and −>57 μM.

Human LDHA = Human LDHA (Homo sapiens (Human), UniProt P00338); assay: human LDHA primary biochemical assay; conditions: read-out: Inhibitory activity IC50, assay of Example 1, activity level classes
Excerpt: This example describes a human LDHA primary biochemical assay employed in the characterization of a compound of formula (I) in an embodiment of the invention.
Test compounds were placed in a Greiner Bio-One (Monroe, N.C.) 1536-well black solid bottom assay plate. 200 millimolar (mM) Tris HCl, pH 7.4, 100 micromolar (μM) EDTA and 0.01% TWEEN-20™, final concentration, was used as the assay buffer. The LDHA reagent was 2 nanomolar (nM) Human LDHA (Meridian Life Science, Inc., Memphis, Tenn.), final concentration, in assay buffer. The substrate reagent was 0.06 mM NADH and 0.2 mM sodium pyruvate, final concentration, in assay buffer. […] The inhibition of LDHA activity was measured by fluorescence emission.

[1] = pharmacokinetics after oral administration in mice; format: in vivo; conditions: male CD1 mice, oral 10 mg/kg

Row | Molecule | IC50 (MiaPaCa2 cells) | IC50 (Human LDHA) | F (fraction of the dose that enters systemic circulation) [1] | AUClast ([1]; plasma, LC/MS/MS) | Cmax ([1]; plasma, LC/MS/MS)
1 | 2-(3-(3′-amino-[1,1′-biphenyl]-3-yl)-4-(4-sulfamoylbenzyl)-1H-pyrazol-1-yl)thiazole-4-carboxylic acid [Compound 523] | 1000 to 10000 nM | 100 to 1000 nM | – | – | –
2 | NS(=O)(=O)c1ccc(Cc2c(-c3cccc(-c4ccccc4)c3)nn(-c3nc(C(=O)O)cs3)c2C(F)(F)F)cc1 [Compound 42, 2-(3-([1,1′-biphenyl]-3-yl)-4-(4-sulfamoylbenzyl)-5-(trifluoromethyl)-1H-pyrazol-1-yl)thiazole-4-carboxylic acid] | – | – | 34% | – | –
3 | CCOC(=O)c1csc(-n2nc(-c3cccc(-c4ccccc4)c3)c(Cc3ccc(S(N)(=O)=O)cc3)c2C(F)(F)F)n1 [Compound 141, ethyl 2-(3-([1,1′-bipheny]-3-yl)-4-(4-sulfamoylbenzyl)-5-(trifluoromethyl)-1H-pyrazol-1-yl)thiazole-4-carboxylate] | – | – | 69% | 2409 ng·h/mL | 851 ng/mL
4 | NS(=O)(=O)c1ccc(Cc2c(-c3ccc(F)c(OC4CC4)c3)nn(-c3nc(C(=O)O)cs3)c2CC2CC2)cc1F [Compound 471, 2-(3-(3-cyclopropoxy-4-fluorophenyl)-5-(cyclopropylmethyl)-4-(3-fluoro-4-sulfamoylbenzyl)-1H-pyrazol-1-yl)thiazole-4-carboxylic acid] | – | < 100 nM | – | – | –
